Consider 45 compounds from ChEMBL document CHEMBL1135109, “Discovery and initial SAR of imidazoquinoxalines as inhibitors of the Src-family kinase p56(Lck)” (Bioorg Med Chem Lett, 2002).

SMILES strings stand for the structures. Where only a bound is given, the exact number is not on record here.

Chain of Tyrosine-protein kinase Lck (P06239 whole entry): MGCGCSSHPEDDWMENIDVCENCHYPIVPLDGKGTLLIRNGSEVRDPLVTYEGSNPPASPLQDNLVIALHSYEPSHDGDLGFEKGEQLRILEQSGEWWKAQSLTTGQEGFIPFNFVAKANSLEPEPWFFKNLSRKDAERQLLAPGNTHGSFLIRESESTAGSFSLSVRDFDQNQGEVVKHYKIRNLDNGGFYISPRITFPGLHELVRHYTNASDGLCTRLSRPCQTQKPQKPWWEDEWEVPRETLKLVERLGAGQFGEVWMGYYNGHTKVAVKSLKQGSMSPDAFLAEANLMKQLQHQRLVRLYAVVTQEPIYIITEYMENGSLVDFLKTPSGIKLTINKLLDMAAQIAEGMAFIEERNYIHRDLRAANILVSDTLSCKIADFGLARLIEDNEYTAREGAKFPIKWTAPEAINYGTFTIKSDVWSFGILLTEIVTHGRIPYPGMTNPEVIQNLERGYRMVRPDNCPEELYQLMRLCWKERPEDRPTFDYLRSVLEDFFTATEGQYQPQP

The subject of the first assay is T-cell. Briefly: Compound was tested for potency against anti-CD3/anti-CD28 induced PBL proliferation of human peripheral blood T-cells.
The compound `Cc1cccc(C)c1Nc1nc2ccccc2n2cncc12` gave an IC50 of 3000 nM.
On the same count and under the same terms, the figure for `COc1ccc2c(nc(Nc3c(C)cccc3Cl)c3cncn32)c1OC` is 670 nM; for `Cc1cccc(Cl)c1Nc1nc2ccccc2n2cncc12` it is 7000 nM; for `Brc1ccccc1Nc1nc2ccccc2n2cncc12` it is 17000 nM.

A further assay has as its target Tyrosine-protein kinase Lck (Homo sapiens, UniProt P06239).
Description: Inhibitory activity against recombinant p56 Lck tyrosine kinase expressed as a His-tagged protein in insect cells using a baculovirus expression system
As to `Brc1ccccc1Sc1nc2ccccc2n2cncc12`, the IC50 is above 12500 nM.
Same read-out and setting: the figure for `COc1ccc2c(nc(Nc3c(C)cccc3Cl)c3cnc(CCCO)n32)c1OC` is 69 nM; for `Cc1cccc(C)c1Nc1nc2ccccc2n2cncc12` it is 16 nM; for `c1ccc(CNc2nc3ccccc3n3cncc23)cc1` it is above 12500 nM.
The same measure, in the same setting: the value for `Brc1ccccc1Nc1nc2ccccc2n2ccnc12` was above 50000 nM; that for `c1ccc2c(c1)nc(Nc1ccncc1)c1cncn12` was above 12500 nM.
The same measure, in the same setting: the figure for `Fc1cccc(Nc2nc3ccccc3n3cncc23)c1` is 1330 nM.
`c1ccc2c(c1)nc(NC1CCCCC1)c1cncn12` showed an IC50 of 3170 nM.
Still for that read-out and setting: the value for `Clc1cccc(Cl)c1Nc1nc2ccccc2n2cncc12` was 9 nM; that for `COc1ccc2c(nc(Nc3c(C)cccc3Cl)c3cnc(C(O)C(C)C)n32)c1OC` (stereo not drawn) was 238 nM.
Same read-out and setting: the value for `COc1ccccc1Nc1nc2ccccc2n2cncc12` was 5520 nM; that for `COc1ccc2c(nc(Nc3c(C)cccc3Cl)c3cnc(/C=N/O)n32)c1OC` was 4.3 nM.
The same measure, in the same setting: the value for `Cc1ncc2c(Nc3ccccc3Br)nc3ccccc3n12` was 180 nM; that for `c1ccc(Nc2nc3ccccc3n3cncc23)cc1` was 890 nM; that for `Fc1cccc(F)c1Nc1nc2ccccc2n2cncc12` was 360 nM.
Consider `COc1ccc2c(nc(Nc3c(C)cccc3Cl)c3cncn32)c1OC`, for which the IC50 stood at 2 nM.
Same read-out and setting: the figure for `CCNC(=O)c1ncc2c(Nc3c(C)cccc3Cl)nc3c(OC)c(OC)ccc3n12` is 665 nM; for `COc1ccc2c(nc(Nc3c(C)cccc3Cl)c3cnc(C)n32)c1OC` it is 7.4 nM; for `Cc1cccc(Cl)c1Nc1nc2ccccc2n2cncc12` it is 9 nM.
On the same count and under the same terms, the value for `O=C(Nc1nc2ccccc2n2cncc12)c1c(Cl)cccc1Cl` was 810 nM; that for `Cc1cccc(C)c1-c1nc2ccccc2n2cncc12` was above 12500 nM; that for `Brc1ccccc1Oc1nc2ccccc2n2cncc12` was 3700 nM.
In turn, `CCCCCCNc1nc2ccccc2n2cncc12` gave an IC50 above 12500 nM.
Turning to `Cc1cc(C)c(Nc2nc3ccccc3n3cncc23)c(Cl)c1`, the IC50 was 30 nM.
The same measure, in the same setting: the figure for `CCCNc1nc2ccccc2n2cncc12` is 2680 nM; for `Brc1ccccc1Nc1nc2ccccc2n2cnc(-c3ccccc3)c12` it is above 12500 nM; for `Clc1cccc(CCNc2nc3ccccc3n3cncc23)c1` it is 4390 nM.
The same measure, in the same setting: the figure for `COc1ccc2c(nc(Nc3c(C)cccc3Cl)c3cnc(C(C)O)n32)c1OC` (stereo not drawn) is 53 nM; for `Brc1ccc(Nc2nc3ccccc3n3cncc23)cc1` it is above 12500 nM.
In the case of `CN(c1ccccc1Cl)c1nc2ccccc2n2cncc12`, the IC50 was above 12500 nM.
The compound `Cc1ncn2c1c(Nc1ccccc1Cl)nc1ccccc12` had an IC50 of 30 nM.
In the case of `Cc1ccccc1C(=O)Nc1nc2ccccc2n2cncc12`, the IC50 is above 12500 nM.
Same read-out and setting: the figure for `Cc1cc(C)c(Nc2nc3ccccc3n3cncc23)c(C)c1` is 40 nM.
Still for that read-out and setting: the figure for `O=[N+]([O-])c1ccccc1Nc1nc2ccccc2n2cncc12` is above 12500 nM.
The compound `Fc1ccccc1Nc1nc2ccccc2n2cncc12` had an IC50 of 390 nM.
Still for that read-out and setting: the figure for `c1cncc(Nc2nc3ccccc3n3cncc23)c1` is 820 nM.
The same measure, in the same setting: the value for `COc1ccc2c(nc(Nc3c(C)cccc3Cl)c3cnc(C=O)n32)c1OC` was 10 nM; that for `CCc1cccc(CC)c1Nc1nc2ccccc2n2cncc12` was 1690 nM.
With `COc1ccc2c(nc(Nc3c(C)cccc3Cl)c3cnc(CO)n32)c1OC`, it took 6.2 nM to reach half-maximal inhibition (IC50).
Still for that read-out and setting: the figure for `Clc1ccccc1Nc1nc2ccccc2n2cncc12` is 60 nM.
In the case of `c1ccc2c(c1)nc(NC1CC1)c1cncn12`, half-maximal inhibition (IC50) required 3170 nM.
On to `O=C(Nc1nc2ccccc2n2cncc12)c1ccccc1Br`, for which the IC50 is 60 nM.
Take `Cc1ccc(Nc2nc3ccccc3n3cncc23)c(Cl)c1`: 240 nM corresponded to half-maximal inhibition (IC50).
Compound `Brc1cccc(Br)c1Nc1nc2ccccc2n2cncc12` yielded an IC50 of 50 nM.
